BindingDB's records for doi:10.1021/acschembio.6b00560 (Vanderbilt Institute of Chemical Biology, Vanderbilt …, 2016)
pIC50: −log10 of the molar value.

Assays:
[1] = biological target: T1, Prostaglandin G/H synthase 1 (Ovis aries, UniProt P05979); assay: COX Enzyme Inhibition Assay (Table 1)
T1 sequence (P05979 whole entry): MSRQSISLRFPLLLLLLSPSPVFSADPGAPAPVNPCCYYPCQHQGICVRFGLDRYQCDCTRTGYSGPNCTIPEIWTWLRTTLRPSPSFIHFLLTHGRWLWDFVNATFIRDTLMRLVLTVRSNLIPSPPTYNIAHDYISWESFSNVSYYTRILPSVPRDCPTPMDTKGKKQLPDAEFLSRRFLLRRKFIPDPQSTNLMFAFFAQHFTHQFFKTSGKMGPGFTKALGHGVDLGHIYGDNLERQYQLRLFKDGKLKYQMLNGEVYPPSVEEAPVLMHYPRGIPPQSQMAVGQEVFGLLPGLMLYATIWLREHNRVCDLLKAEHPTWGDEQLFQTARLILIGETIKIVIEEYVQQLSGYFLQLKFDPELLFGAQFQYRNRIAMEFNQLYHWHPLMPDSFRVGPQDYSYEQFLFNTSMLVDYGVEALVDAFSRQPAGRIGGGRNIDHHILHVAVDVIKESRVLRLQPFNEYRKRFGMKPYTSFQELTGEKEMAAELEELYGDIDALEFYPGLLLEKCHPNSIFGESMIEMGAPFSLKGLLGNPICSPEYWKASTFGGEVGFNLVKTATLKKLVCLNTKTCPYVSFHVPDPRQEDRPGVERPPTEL

[2] = biological target: T2, Prostaglandin G/H synthase 2 (Mus musculus, UniProt Q05769); assay: COX Enzyme Inhibition Assay (Table 1)
T2 sequence (Q05769 whole entry): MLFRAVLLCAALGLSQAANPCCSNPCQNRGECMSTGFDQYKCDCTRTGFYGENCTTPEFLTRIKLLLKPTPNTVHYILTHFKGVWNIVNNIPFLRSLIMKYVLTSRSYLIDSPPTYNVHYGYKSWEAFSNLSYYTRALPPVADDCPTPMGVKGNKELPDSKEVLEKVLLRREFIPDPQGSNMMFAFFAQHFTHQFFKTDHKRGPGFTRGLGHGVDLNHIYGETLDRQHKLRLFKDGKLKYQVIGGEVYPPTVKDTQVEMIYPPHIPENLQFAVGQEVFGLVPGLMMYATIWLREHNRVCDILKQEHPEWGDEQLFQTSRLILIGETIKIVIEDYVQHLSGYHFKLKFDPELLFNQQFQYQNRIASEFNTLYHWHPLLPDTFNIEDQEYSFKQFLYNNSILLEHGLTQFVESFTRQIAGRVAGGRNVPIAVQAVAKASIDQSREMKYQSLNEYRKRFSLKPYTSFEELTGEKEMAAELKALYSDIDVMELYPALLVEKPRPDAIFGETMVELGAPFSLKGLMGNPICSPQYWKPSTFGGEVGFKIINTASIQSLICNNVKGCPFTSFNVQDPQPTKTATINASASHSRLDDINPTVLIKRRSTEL

| SMILES | pIC50 [1] | pIC50 [2] |
| --- | --- | --- |
| COc1ccc2c(c1)c(CC(=O)O[C@@H](C(=O)O[C@H]1C[C@@]3(O)[C@@H](OC(=O)c4ccccc4)[C@@H]4[C@]5(OC(C)=O)CO[C@@H]5C[C@H](O)[C@@]4(C)C(=O)[C@H](OC(C)=O)C(=C1C)C3(C)C)[C@@H](NC(=O)c1ccccc1)c1ccccc1)c(C)n2C(=O)c1ccc(Cl)cc1 [Cytotoxic conjugates, 1] | < 4.60 | < 4.60 |
| COc1ccc2c(c1)c(CC(=O)NCCCCOC(=O)CCC(=O)O[C@@H](C(=O)O[C@H]1C[C@@]3(O)[C@@H](OC(=O)c4ccccc4)[C@@H]4[C@]5(OC(C)=O)CO[C@@H]5C[C@H](O)[C@@]4(C)C(=O)[C@H](OC(C)=O)C(=C1C)C3(C)C)[C@@H](NC(=O)c1ccccc1)c1ccccc1)c(C)n2C(=O)c1ccc(Cl)cc1 [Cytotoxic conjugates, 3] | < 4.60 |  |
| COc1ccc2c(c1)c(CC(=O)Nc1ccc(CNC(=O)CCC(=O)O[C@@H](C(=O)O[C@H]3C[C@@]4(O)[C@@H](OC(=O)c5ccccc5)[C@@H]5[C@]6(OC(C)=O)CO[C@@H]6C[C@H](O)[C@@]5(C)C(=O)[C@H](OC(C)=O)C(=C3C)C4(C)C)[C@@H](NC(=O)c3ccccc3)c3ccccc3)cc1)c(C)n2C(=O)c1ccc(Cl)cc1 [Cytotoxic conjugates, 4] | < 4.60 |  |
| COc1ccc2c(c1)c(CC(=O)NCCOC(=O)\C=C(C)/C=C/C=C(C)/C=C/C1=C(C)CCCC1(C)C)c(C)n2C(=O)c1ccc(Cl)cc1 [Cytotoxic conjugates, 5] | < 4.60 |  |
| COc1ccc2c(c1)c(CC(=O)NCCNC(=O)/C=C(C)/C=C/C=C(C)/C=C/C1=C(C)CCCC1(C)C)c(C)n2C(=O)c1ccc(Cl)cc1 [Cytotoxic conjugates, 6] | < 4.60 | 7.00 |
| COc1ccc2c(c1)c(CC(=O)NCCNC(=O)/C=C(C)/C=C/C=C(C)\C=C\C1=C(C)CCCC1(C)C)c(C)n2C(=O)c1ccc(Cl)cc1 [Cytotoxic conjugates, 7] | < 4.60 | 6.22 |
| COc1ccc2c(c1)c(CC(=O)NCCNC(=O)CCC(=O)Nc1ccc(S(=O)(=O)Nc3nccs3)cc1)c(C)n2C(=O)c1ccc(Cl)cc1 [Cytotoxic conjugates, 8] | < 4.60 |  |
| COc1ccc2c(c1)c(CCNC(=O)CCC(=O)Nc1ccc(S(=O)(=O)Nc3nccs3)cc1)c(C)n2Cc1ccc(Br)cc1 [Cytotoxic conjugates, 9] | < 4.60 | < 4.60 |
| CCC1(O)C(=O)OCc2c1cc1n(c2=O)Cc2cc3cc(OC(=O)CCC(=O)OCCNC(=O)Cc4c(C)n(C(=O)c5ccc(Cl)cc5)c5ccc(OC)cc45)ccc3nc2-1 (stereo unspecified) [Cytotoxic conjugates, 10] | < 4.60 | < 4.60 |
| COc1ccc2c(c1)c(CC(=O)NCCNC(=O)CCC(=O)O[C@@H]1c3cc4c(cc3[C@H](c3cc(OC)c(OC)c(OC)c3)[C@@H]3C(=O)OCC13)OCO4)c(C)n2C(=O)c1ccc(Cl)cc1 (stereo partly specified) [Cytotoxic conjugates, 11] | < 4.60 | 6.33 |
| COc1ccc2c(c1)c(CC(=O)NCCCCOC(=O)CCC(=O)O[C@@H]1c3cc4c(cc3[C@H](c3cc(OC)c(OC)c(OC)c3)[C@@H]3C(=O)OCC13)OCO4)c(C)n2C(=O)c1ccc(Cl)cc1 (stereo partly specified) [Cytotoxic conjugates, 14] | < 4.60 |  |
| COc1ccc2c(c1)c(CC(=O)NCc1ccc(CNC(=O)CCC(=O)O[C@@H]3c4cc5c(cc4[C@H](c4cc(OC)c(OC)c(OC)c4)[C@@H]4C(=O)OCC34)OCO5)cc1)c(C)n2C(=O)c1ccc(Cl)cc1 (stereo partly specified) [Cytotoxic conjugates, 15] | < 4.60 |  |
| COc1ccc2c(c1)c(CC(=O)NCCCCNC(=O)CCC(=O)OC1CCCCC1)c(C)n2C(=O)c1ccc(Cl)cc1 [Cytotoxic conjugates, 16] | < 4.60 |  |
| COc1cc([C@@H]2c3cc4c(cc3[C@H](O)[C@H]3COC(=O)[C@H]23)OCO4)cc(OC)c1OC [podophyllotoxin] | < 4.60 | < 4.60 |
